# Patent US11382328B2, “Rapid drug discovery methods for pathogen inactivation” (priority 2019, dated 2022)
# System: E. coli strain W3110
# Test: Synergy assays: Biolog chemical sensitivity panels with Group IB metal, coefficient of drug interaction (CDI) from relative growth
# Format: cell-based
# Conditions: for CDI (coefficient of drug interaction) / CDI (coefficient of drug interaction), silver + biocide: E. coli
smiles,measurement,setting,value
"c1ccc(-c2ccccn2)nc1 [2,2′-dipyridyl]",CDI,"Copper 0.1 mM, biocide concentration 1 of 4",0.76
same,CDI,"Copper 0.1 mM, biocide concentration 2 of 4",Tox
same,CDI,"Copper 0.1 mM, biocide concentration 3 of 4",Tox
same,CDI,"Copper 0.1 mM, biocide concentration 4 of 4",Tox
same,CDI,"Copper 0.5 mM, biocide concentration 1 of 4",0.61
same,CDI,"Copper 0.5 mM, biocide concentration 2 of 4",Tox
same,CDI,"Copper 0.5 mM, biocide concentration 3 of 4",Tox
same,CDI,"Copper 0.5 mM, biocide concentration 4 of 4",Tox
same,CDI,"Copper 1.0 mM, biocide concentration 1 of 4",0.76
same,CDI,"Copper 1.0 mM, biocide concentration 2 of 4",Tox
same,CDI,"Copper 1.0 mM, biocide concentration 3 of 4",Tox
same,CDI,"Copper 1.0 mM, biocide concentration 4 of 4",Tox
same,CDI (coefficient of drug interaction),"Gold 5 μM, biocide concentration 2 of 4",Tox
same,CDI (coefficient of drug interaction),"Gold 5 μM, biocide concentration 3 of 4",Tox
same,CDI (coefficient of drug interaction),"Gold 5 μM, biocide concentration 4 of 4",Tox
same,CDI (coefficient of drug interaction),"Gold 25 μM, biocide concentration 1 of 4",1.09
same,CDI (coefficient of drug interaction),"Gold 25 μM, biocide concentration 2 of 4",Tox
same,CDI (coefficient of drug interaction),"Gold 25 μM, biocide concentration 3 of 4",Tox
same,CDI (coefficient of drug interaction),"Gold 25 μM, biocide concentration 4 of 4",Tox
same,"CDI (coefficient of drug interaction), silver + biocide","Silver 0.5 μM, 1st of four biocide concentrations",1.55
same,"CDI (coefficient of drug interaction), silver + biocide","Silver 0.5 μM, 2nd of four biocide concentrations",Tox
same,"CDI (coefficient of drug interaction), silver + biocide","Silver 0.5 μM, 3rd of four biocide concentrations",Tox
same,"CDI (coefficient of drug interaction), silver + biocide","Silver 0.5 μM, 4th of four biocide concentrations",Tox
same,"CDI (coefficient of drug interaction), silver + biocide","Silver 1.0 μM, 1st of four biocide concentrations",1.07
same,"CDI (coefficient of drug interaction), silver + biocide","Silver 1.0 μM, 2nd of four biocide concentrations",Tox
same,"CDI (coefficient of drug interaction), silver + biocide","Silver 1.0 μM, 3rd of four biocide concentrations",Tox
same,"CDI (coefficient of drug interaction), silver + biocide","Silver 1.0 μM, 4th of four biocide concentrations",Tox
same,"CDI (coefficient of drug interaction), silver + biocide","Silver 5.0 μM, 1st of four biocide concentrations",1.21
same,"CDI (coefficient of drug interaction), silver + biocide","Silver 5.0 μM, 2nd of four biocide concentrations",Tox
same,"CDI (coefficient of drug interaction), silver + biocide","Silver 5.0 μM, 3rd of four biocide concentrations",Tox
same,"CDI (coefficient of drug interaction), silver + biocide","Silver 5.0 μM, 4th of four biocide concentrations",Tox
same,CDI (coefficient of drug interaction),"[…], biocide concentration 1 of 4",0.72
same,CDI (coefficient of drug interaction),"[…], biocide concentration 2 of 4",Tox
same,CDI (coefficient of drug interaction),"[…], biocide concentration 3 of 4",Tox
same,CDI (coefficient of drug interaction),"[…], biocide concentration 4 of 4",Tox
